# Assay results from patent US20070259879A1, “Piperazine and piperidine biaryl derivatives” (priority 2006, published 2007).
# pIC50: −log10 of the molar value.
# Test system: HIV-1 pseudotyped virus
# Assay: HIV-1 pseudotyped virus assay (luciferase reporter gene, single cycle of infection)
# Type: cell-based
# Details: Human immunodeficiency virus 1, CCR5, 72 h, read-out: Activity (antiviral activity, IC50)
# Description: In this example are illustrated experimental procedures for determining biological activity, such as antiviral activity. For determining biological activity, an HIV-1 infection assay was used to determine the antiviral potency for compounds of the present invention.
# For determining biological activity, an HIV-1 pseudotyped virus assay was used to determine the respective antiviral potencies of each compound tested in the assay for comparison. The pseudotyped assay scores for a reduction in infection as indicated by decreased signal from the reporter gene encoding a luciferase enzyme (“reporter gene”). The assay employs cell lines expressing CD4 and either of the primary chemokine receptors (CCR5 or CXCR4) that HIV uses as a co-receptor (“target cells”). Pseudotyped virus was prepared by co-transfection of 293T cells with: 1) a plasmid construct carrying the HIV-1 envelope of choice, in combination with 2) a pseudotyped virus backbone construct in which (a) envelope expression has been abrogated due to a frameshift in the envelope sequence, and (b) the reporter gene replaces nef. Expression of HIV-1 envelope on 293T packaging cells results in the production of a pseudotyped virus carrying the reporter gene that is capable of a single cycle of infection.
# The compounds of the present invention being tested for antiviral activity were serially diluted and dose responses determined in duplicate in two separate experiments. The compounds to be tested were added directly to the plated, target cells, followed by the addition of pseudotyped virus described above. The cells were cultured for three days prior harvest. Media and compound were removed, the cell monolayer was washed, lysed by detergent, and then frozen at −80 degrees C. for a minimum of 30 minutes. Following thawing and acclimation to room temperature, luciferase production was quatified by injecting 100 […]I of a substrate (of the enzyme encoded by the reporter gene) into each well followed by detecting the signal (light emitted from the interaction between the enzyme and substrate) after 5 seconds. In the pseudotyped assay, a 50% reduction in signal is significant, and provides the primary cutoff value for assessing antiviral activity (“IC50” is defined as the dilution resulting in a 50% reduction in enzymatic activity as interpolated from a titration curve). Representative compounds according to the present invention, and their antiviral activity, are illustrated in Table 3.
row,SMILES,pIC50
1,"C[C@@H]1CN(C(=O)c2ccccc2)CCN1C(=O)C(=O)c1ccc(-c2cnco2)cc1 [Example 101, 1-((R)-4-Benzoyl-2-methyl-piperazin-1-yl)-2-(4-oxazol-5-yl-phenyl)-ethane-1,2-dione]",> 5.30
2,"Cc1cc(-c2ccc(C(=O)C(=O)N3CCN(C(=O)c4ccccc4)C[C@H]3C)cc2)on1 [Example 102, 1-((R)-4-Benzoyl-2-methyl-piperazin-1-yl)-2-[4-(3-methyl-isoxazol-5-yl)-phenyl]-ethane-1,2-dione]",> 5.30
3,"C[C@@H]1CN(C(=O)c2ccccc2)CCN1C(=O)C(=O)c1ccc(-c2nccs2)cc1 [Example 103, 1-((R)-4-Benzoyl-2-methyl-piperazin-1-yl)-2-(4-thiazol-2-yl-phenyl)-ethane-1,2-dione]",> 5.30
4,"Cc1nc(-c2ccc(C(=O)C(=O)N3CCN(C(=O)c4ccccc4)C[C@H]3C)cc2)cs1 [Example 104, 1-((R)-4-Benzoyl-2-methyl-piperazin-1-yl)-2-[4-(2-methyl-thiazol-4-yl)-phenyl]-ethane-1,2-dione]",< 5.30
5,"C[C@@H]1CN(C(=O)c2ccccc2)CCN1C(=O)C(=O)c1ccc(-c2nnn(C)n2)cc1 [Example 105, 1-((R)-4-Benzoyl-2-methyl-piperazin-1-yl)-2-[4-(2-methyl-2H-tetrazol-5-yl)-phenyl]-ethane-1,2-dione]",> 5.30
6,"CO/N=C(\c1ccccc1)N1CCN(C(=O)C(=O)c2ccc(-c3cnco3)cc2)[C@H](C)C1 [Example 106, 1-((R)-4-{[Methoxyimino]-phenyl-methyl}-2-methyl-piperazin-1-yl)-2-(4-oxazol-5-yl-phenyl)-ethane-1,2-dione]",> 5.30
7,"Cc1noc(-c2ccc(S(=O)(=O)N3CCN(C(=O)c4ccccc4)CC3C)s2)n1 (centres unmarked) [Example 107, {3-Methyl-4-[5-(3-methyl-[1,2,4]oxadiazol-5-yl)-thiophene-2-sulfonyl]-piperazin-1-yl}-phenyl-methanone]",< 5.30
8,"CON(C)C(=O)c1ccc(S(=O)(=O)N2CCN(C(=O)c3ccccc3)CC2C)s1 (centres unmarked) [Example 108, 5-(4-Benzoyl-2-methyl-piperazine-1-sulfonyl)-thiophene-2-carboxylic acid methoxy-methyl-amide]",> 5.30
9,"CC1CN(C(=O)c2ccccc2)CCN1S(=O)(=O)c1ccc(-n2cncn2)s1 (centres unmarked) [Example 109, [3-Methyl-4-(5-[1,2,4]triazol-1-yl-thiophene-2-sulfonyl)-piperazin-1-yl]-phenyl-methanone]",< 5.30
10,"CC1CN(C(=O)c2ccccc2)CCN1S(=O)(=O)c1ccc(C(=O)c2ccco2)s1 (centres unmarked) [Example 110, {4-[5-(Furan-2-carbonyl)-thiophene-2-sulfonyl]-3-methyl-piperazin-1-yl}-phenylmethanone]",< 5.30
11,"CC1CN(C(=O)c2ccccc2)CCN1S(=O)(=O)c1ccc(C(=O)c2cnc[nH]2)s1 (centres unmarked) [Example 111, {4-[5-(3H-Imidazole-4-carbonyl)-thiophene-2-sulfonyl]-3-methyl-piperazin-1-yl}-phenyl-methanone]",< 5.30
12,"CC1CN(C(=O)c2ccccc2)CCN1S(=O)(=O)c1ccc(C(=O)c2ccon2)s1 (centres unmarked) [Example 112, {4-[5-(Isoxazole-3-carbonyl)-thiophene-2-sulfonyl]-3-methyl-piperazin-1-yl}-phenyl-methanone]",< 5.30
13,"CC1CN(C(=O)c2ccccc2)CCN1S(=O)(=O)c1cccc(-n2ccnn2)c1 (centres unmarked) [Example 113, [3-Methyl-4-(3-[1,2,3]triazol-1-yl-benzenesulfonyl)-piperazin-1-yl]-phenyl-methanone]",< 5.30
14,"CC1CN(C(=O)c2ccccc2)CCN1S(=O)(=O)c1cccc(-n2cncn2)c1 (centres unmarked) [Example 114, [3-Methyl-4-(3-[1,2,4]triazol-1-yl-benzenesulfonyl)-piperazin-1-yl]-phenyl-methanone]",< 5.30
15,"CC1CN(C(=O)c2ccccc2)CCN1S(=O)(=O)c1cccc(-n2cccn2)c1 (centres unmarked) [Example 115, [3-Methyl-4-(3-pyrazol-1-yl-benzenesulfonyl)-piperazin-1-yl]-phenyl-methanone]",< 5.30
16,"CC1CN(C(=O)c2ccccc2)CCN1S(=O)(=O)c1ccc(-n2ccnn2)cc1 (centres unmarked) [Example 116, [3-Methyl-4-(4-[1,2,3]triazol-1-yl-benzenesulfonyl)-piperazin-1-yl]-phenyl-methanone]",< 5.30

row,SMILES,pIC50
1,"CC1CN(C(=O)c2ccccc2)CCN1S(=O)(=O)c1ccc(-n2nccn2)cc1 (centres unmarked) [Example 117, [3-methyl-4-(4-[1,2,3]triazol-2-yl-benzenesulfonyl)-piperazin-1-yl]-phenyl-methanone]",< 5.30
2,"CC1CN(C(=O)c2ccccc2)CCN1S(=O)(=O)c1ccc(-n2cncn2)cc1 (centres unmarked) [Example 118, [3-Methyl-4-(4-[1,2,4]triazol-1-yl-benzenesulfonyl)-piperazin-1-yl]-phenyl-methanone]",< 5.30
3,"CC1CN(C(=O)c2ccccc2)CCN1S(=O)(=O)c1ccc(-n2cccn2)cc1 (centres unmarked) [Example 119, [3-Methyl-4-(4-pyrazol-1-yl-benzenesulfonyl)-piperazin-1-yl]-phenyl-methanone]",< 5.30
4,"C[C@@H]1CN(C(=O)c2ccccc2)CCN1S(=O)(=O)c1ccc(-c2c[nH]nn2)cc1 [Example 120, {(R)-3-Methyl-4-[4-(1H-[1,2,3]triazol-4-yl)-benzenesulfonyl]-piperazin-1-yl)-phenyl-methanone]",> 5.30
5,"CC(C)Cn1cc(-c2ccc(S(=O)(=O)N3CCN(C(=O)c4ccccc4)C[C@H]3C)cc2)nn1 [Example 121, {(R)-4-[4-(1-Isobutyl-1H-[1,2,3]triazol-4-yl)-benzenesulfonyl]-3-methyl-piperazin-1-yl}-phenyl-methanone]",< 5.30
6,"C[C@@H]1CN(C(=O)c2ccccc2)CCN1S(=O)(=O)c1ccc(-c2cn(Cc3ccccc3)nn2)cc1 [Example 122, [(R)-4-[4-(1-Benzyl-1H-[1,2,3]triazol-4-yl)-benzenesulfonyl]-3-methyl-piperazine-1-yl}-phenyl-methanone]",< 5.30
7,CC(=O)c1ccc(-n2cc(-c3ccc(S(=O)(=O)N4CCN(C(=O)c5ccccc5)C[C@H]4C)cc3)nn2)cc1 [Example 123],< 5.30
8,"C[C@@H]1CN(C(=O)c2ccccc2)CCN1S(=O)(=O)c1ccc(-c2cc(-c3ccccc3)no2)cc1 [Example 124, {(R)-3-Methyl-4-[4-(3-phenyl-isoxazol-5-yl)-benzenesulfonyl]-piperazin-yl}-phenyl-methanone]",< 5.30
9,"C[C@@H]1CN(C(=O)c2ccccc2)CCN1S(=O)(=O)c1ccc(-c2c[nH]nn2)s1 [Example 125, {(R)-3-Methyl-4-[5-(1H-[1,2,3]triazol-4-yl)-thiophene-2-sulfonyl]-piperazin-1-yl}-phenyl-methanone]",< 5.30
10,"C[C@@H]1CN(C(=O)c2ccccc2)CCN1S(=O)(=O)c1ccc(-c2cn(Cc3ccccc3)nn2)s1 [Example 127, {(R)-4-[5-(1-Benzyl-1H-[1,2,3]triazol-4-yl)-thiophene-2-sulfonyl]-3-methyl-piperazin-1-yl}-phenyl-methanone]",< 5.30
11,CC(=O)c1ccc(-n2cc(-c3ccc(S(=O)(=O)N4CCN(C(=O)c5ccccc5)C[C@H]4C)s3)nn2)cc1 [Example 128],< 5.30
12,"Cc1c[nH]c(-n2cc(-c3ccc(S(=O)(=O)N4CCN(C(=O)c5ccccc5)C[C@H]4C)s3)nn2)n1 [Example 129, ((R)-3-Methyl-4-{5-[1-(4-methyl-1H-imidazol-2-yl)-1H-[1,2,3]triazol-4-yl]-thiophene-2-sulfonyl}-piperazin-1-yl)-phenyl-methanone]",< 5.30
13,"CCOC(=O)c1sc(SC)nc1-n1cc(-c2ccc(S(=O)(=O)N3CCN(C(=O)c4ccccc4)C[C@H]3C)s2)nn1 [Example 130, 4-{4-[5-((R)-4-Benzoyl-2-methyl-piperazine-1-sulfonyl)-thiophen-2-yl]-[1,2,3]triazol-1-yl}-2-methylsulfanyl-thiazole-5-carboxylic acid ethyl ester]",< 5.30
14,"C[C@@H]1CN(C(=O)c2ccccc2)CCN1S(=O)(=O)c1ccc(-c2cc(-c3ccccc3)no2)s1 [Example 131, {(R)-3-Methyl-4-[5-(3-phenyl-sioxazol-5-yl)-thiophene-2-sulfonyl]-piperazin-1-yl}-phenyl-methanone]",< 5.30
15,"C[C@@H]1CN(C(=O)c2ccccc2)CCN1S(=O)(=O)c1ccc(-c2cc(C(=O)c3ccc(Cl)cc3)no2)s1 [Example 132, ((R)-4-{5-[3-(4-Chloro-benzoyl)-isoxazol-5-yl]-thiophene-2-sulfonyl}-3-methyl-piperazin-1-yl)-phenyl-methanone]",< 5.30
16,"C[C@@H]1CN(C(=O)c2ccccc2)CCN1S(=O)(=O)c1ccc(-n2cccn2)cc1 [Example 133, [(R)-3-methyl-4-(4-pyrazole-1-yl-benzenesulfonyl)-piperazin-1-yl]-phenyl-methanone]",< 5.30
